Measurements as given in US20240148833A1, “COMPOSITION COMPRISING GLP-1 RECEPTOR AGONIST AND ACAT INHIBITOR” (EFIL BioScience Inc., priority 2022, published 2024).
Read-outs that look alike come from different tables or passages of the source.

Legend:
[1] = Cohort 1: daily sc administration in morbidly obese DIO mice, body weight, food intake, organ weight; format: in vivo, male C57BL/6 mice; conditions: for mean body weight change, % of starting body weight: initial 4-week period (day 28), avasimibe 10 mg/kg BW, semaglutide 0.04 mg/kg BW, HF diet
Method: (§1) Cohort 1: The first set of animal study was conducted at Nonclinical Research Institute, ChemOn Inc., and experimental procedures were approved by Institutional Animal Care and Use Committee (serial number 2021-09-007). Eight-week-old male C57BL/6 mice were purchased (Orient Bio Inc., Republic of Korea). After 2-week acclimation, the mice were fed with high-fat (HF) diet (cat #: D12492, Research Diets Inc.) for 12 weeks to develop DIO. These mice were then randomly assigned to control, avasimibe, semaglutide, and combination groups. Avasimibe solution was prepared for making the final concentration of avasimibe at 10 mg/kg BW, as described in Y. Zhu, S. Q. Kim, Y. Zhang, Q. Liu, K. H. Kim, Pharmacological inhibition of acyl-coenzyme A:cholesterol acyltransferase alleviates obesity and insulin resistance in diet-induced obese mice by regulating food intake, Metabolism 123 (2021) 154861, which is incorporated herein by reference. Semaglutide stock solution prepared in DMSO (1 mg/ml) was diluted with PBS for the final concentration of 0.04 mg/kg BW. The drug solution or the vehicle solution at a volume of 10 μl/g BW was injected to the mice sc daily for the indicated days.
Cohort 1 mice were used to investigate whether combined treatment with semaglutide and a lower dose avasimibe compared to single semaglutide injection in morbidly obese mice (FIG. 1A). On the first day of the experiment, the average body weight of the mice was recorded as 48.84±2.26 grams (FIG. 1B). […] Mice in the vehicle control and avasimibe groups were sacrificed after additional 16 days of treatment (FIG. 1A). Throughout the initial 4-week period, the mean body weight of the vehicle-treated animals increased by 1.2% compared to their starting body weight. In contrast, the mean body weight changes for mice treated with avasimibe, semaglutide, or the combination of both drugs were −6.29%, −21.66%, and −30.47% of their starting body weight, respectively (FIG. 1C). […] Y. Zhu, S. Q. Kim, Y. Zhang, Q. Liu, K. H. Kim, Pharmacological inhibition of acyl-coenzyme A:cholesterol acyltransferase alleviates obesity and insulin resistance in diet-induced obese mice by regulating food intake, Metabolism 123 (2021) 154861, which is incorporated herein by reference. Consequently, we increased the avasimibe dose to 20 mg/kg BW in the subsequent study involving the second cohort of mice. […] However, as the treatment regimen continued, food intake gradually returned to baseline levels, and the effect of semaglutide diminished around day 26. […] To investigate potential toxic effects of the combination treatment on the liver, we measured plasma ALT and AST levels.

[2] = format: in vivo, male C57BL/6 mice; design: Plasma Cholesterol / Plasma CE (cholesteryl ester): unit not given here; conditions: mean±SEM, n=10
Method: as §1
Body composition (e.g., fat mass, lean mass, free water, and total water) changes were assessed right before sacrificing the second cohort of mice using EchoMRI (Echo Medical Systems). Blood samples were obtained after fasting for 3h, frozen and stored until analysis. Aspartate transaminase (AST), alanine aminotransferase (ALT), glucose, triglycerides (TG), high-density lipoprotein (HDL-C) and low-density lipoprotein cholesterol (LDL-C) were also measured (AU680 Chemistry Analyzer, Beckman Coulter). The levels of serum leptin (cat #: ab100718, Abcam) and insulin (cat #: ab277390, Abcam) were determined by enzyme-linked immunosorbent assay kit and cholesterol/CE (cat #: ab65359, Abcam) was determined by an enzymatic assay according to the manufacturers' instructions.

[3] = Cohort 2: sc administration every three days for 23 days in moderately obese DIO mice, body weight and food intake; format: in vivo, male C57BL/6 mice; conditions: for mean body weight loss, % of the starting body weight: sc every three days for 23 days, avasimibe 20 mg/kg BW, HF diet
Method: Cohort 2: The second set of animal experiments were conducted according to a protocol approved by the Purdue Animal Care and Use Committee (protocol number: 11129000347). Male C57BL/6 DIO mice were purchased from Jackson Laboratory. After 8-week HF diet feeding, mice were randomly assigned to the same groups as cohort 1: control, avasimibe, semaglutide, and combination groups. Avasimibe (20 mg/kg BW) and semaglutide (0.04 mg/kg BW) were prepared in the method used with regard to Cohort 1, and the drugs were sc injected every three days for 23 days. Mice were kept on a 12/12 h light/dark cycle in a humidity and temperature control facility with ad libitum access to food and water. To validate the impact of the combined treatment of semaglutide and avasimibe in DIO mice and to simulate a weekly semaglutide regimen for humans, we utilized Cohort 2 mice (FIG. 2A). On day 1, the average body weight of the mice was recorded as 37.37±3.58 grams. Throughout the treatment period, the mice in the vehicle group continued to gain weight, reaching an average body weight of 41.58±4.74 grams, representing a […] increase from the starting body weight (FIG. 2B). […] Specifically, the mean body weight losses were 0.82%, 8.56%, and 14.89% of the starting body weight for the mice treated with avasimibe, semaglutide, and the combination of both drugs, respectively (FIG. 2C).

[4] = Cohort 2: histological measurement of adipocyte size in inguinal fat pad (H&E); format: in vivo, male C57BL/6 mice; conditions: sc every three days for 23 days
Method: (§2) Cohort 2: The second set of animal experiments were conducted according to a protocol approved by the Purdue Animal Care and Use Committee (protocol number: 11129000347). Male C57BL/6 DIO mice were purchased from Jackson Laboratory. After 8-week HF diet feeding, mice were randomly assigned to the same groups as cohort 1: control, avasimibe, semaglutide, and combination groups. Avasimibe (20 mg/kg BW) and semaglutide (0.04 mg/kg BW) were prepared in the method used with regard to Cohort 1, and the drugs were sc injected every three days for 23 days. Mice were kept on a 12/12 h light/dark cycle in a humidity and temperature control facility with ad libitum access to food and water.
During animal sacrifice, adipose tissues were rinsed with saline solution, fixed in 10% neutral formalin buffered solution, and embedded in paraffin. The tissues were then cut into […] sections and stained with hematoxylin and eosin (H&E) to measure cell size (˜100 cells/mouse) by ImageJ software (NIH).

[5] = Cohort 2: oral glucose tolerance test (OGTT); format: in vivo, male C57BL/6 mice; conditions: sc every three days, avasimibe 20 mg/kg BW; D-glucose 2 g/kg BW oral after 6 h fast
Method: as §2, with “water. Mice were fasted for 6 hrs (07:00-13:00) prior to oral administration of D-glucose (2 g/kg BW). Tail blood samples were obtained before (at 0) and at 15, 30, 60, 90 and 120 minutes after glucose challenge for the measurement of blood glucose concentration using a CONTOUR® NEXT glucometer (Ascensia Diabetes Care, Parsippany, NJ, USA).” for “water.”

[6] = daily intraperitoneal (ip) 20 mg/kg BW avasimibe for 14 day; cited from earlier work
[7] = Day 43, daily sc avasimibe 10 mg/kg BW
[8] = Day 29, daily sc semaglutide 0.04 mg/kg BW with or without avasimibe 10 mg/kg BW

For `CC(C)c1cc(C(C)C)c(CC(=O)NS(=O)(=O)Oc2c(C(C)C)cccc2C(C)C)c(C(C)C)c1` [Avasimibe, avasimibe], the “mean body weight change, % of starting body weight” value ([1]; daily sc) was −6.29%, the “Plasma Glucose” value [2, 7] was 139.7 ± 6.32 mg/dL and the “Plasma HDL” value [2, 7] was 35.13 ± 1.14 mg/dL. For the same compound, the “Plasma Insulin” value [2, 7] was 1.43 ± 0.29 mIU/mL, the “Plasma LDL” value [2, 7] was 7.14 ± 0.46 mg/dL and the “Plasma Leptin” value [2, 7] was 6.72 ± 1.40 pg/mL. The “Plasma TG (triglyceride)” value [2, 7] was 33.80 ± 2.09 mg/dL, the “mean body weight loss, % of the starting body weight” value ([3]; semaglutide 0.04 mg/kg BW) was 0.82% and the “percentage of large adipocytes (20,001-100,000 μm^2) compared to vehicle group” value [4] was “lower percentage”. The “percentage of small adipocytes (5,001-10,000 μm^2) compared to vehicle group” value [4] was “significantly higher percentage”, the “glucose tolerance in OGTT” value [5] was “did not enhance glucose tolerance” and the “reduction in body weight” value [6] was 24%.

For semaglutide, the “day around which the effect on food intake diminished” value ([1]; daily sc semaglutide 0.04 mg/kg BW) was ~26 days, the “mean body weight change, % of starting body weight” value ([1]; daily sc) was −21.66% and the “food intake compared to vehicle or avasimibe alone” value ([1]; daily sc, early treatment period) was “rapid suppression of food intake”. The “Plasma CE (cholesteryl ester)” value [2, 8] was 7.071 ± 0.240, the “Plasma Cholesterol” value [2, 8] was 8.055 ± 0.292 and the “Plasma Glucose” value [2, 8] was 121.73 ± 6.26 mg/dL. The “Plasma HDL” value [2, 8] was 37.02 ± 1.14 mg/dL, the “Plasma Insulin” value [2, 8] was 0.41 ± 0.07 mIU/mL and the “Plasma LDL” value [2, 8] was 5.05 ± 0.60 mg/dL. The “Plasma Leptin” value [2, 8] was 2.99 ± 0.65 pg/mL, the “Plasma TG (triglyceride)” value [2, 8] was 21.60 ± 1.38 mg/dL and the “mean body weight loss, % of the starting body weight” value ([3]; semaglutide 0.04 mg/kg BW) was 8.56%. For the same compound, the “time for food intake to recover after each administration” value ([3]; sc every three days, semaglutide 0.04 mg/kg BW) was ≤ 48 h, the “food intake by day 22, versus vehicle group” value ([3]; sc every three days, by the seventh administration) was “surpass that of the vehicle group” and the “percentage of large adipocytes (40,001-100,000 μm^2) compared to vehicle group” value [4] was “lower percentage”.
